Measured values: paper PMC5421785, “Citrullination only infrequently impacts peptide binding to HLA class II MHC” (PLoS ONE, 2017)
Like-named read-outs stand apart in the source and are kept apart here. One block for each compound: values may come before it. Square brackets hold non-standard residues; d marks the D form. Ends that are not written are not given here. Peptide text beside a SMILES is read from it. Cit = NC(=O)NCCC[C@H](N)C(=O)O

Columns and labels:
HLA-DRB1*04:01 = molecular target: T1, HLA-DRB1*04:01 (Homo sapiens, UniProt P01903+P01911, A100K/A169T/F76Y/I96L/K127E/L162R/M171V/N62H/P40V/Q125Y/R42H/S133A/S149N/S66Y/V115G/V209L/W38E); assay: HLA class II peptide binding, inhibition of radiolabeled peptide binding to purified MHC
T1 construct: EBV transformed homozygous cell lines were used as sources of MHC molecules; endogenous in cells; host or cells: EBV transformed homozygous cell lines

HLA-DRB1*01:01 = molecular target: T2, HLA-DRB1*01:01 (Homo sapiens, UniProt P01903+P01911, A100R/D57E/F55L/F60I/F76Y/I96L/L162R/M171V/P40L/Q125E/R42F/V115G/Y59C); assay: as above
T2 construct: EBV transformed homozygous cell lines were used as sources of MHC molecules; endogenous in cells; host or cells: EBV transformed homozygous cell lines

[1] = citrullinated 15-mer peptide (X = citrulline), purified HLA-DRB1*04:01, read-out: DRB1*04:01 binding capacity, Cit peptide (IC50 nM)
[2] = citrullinated 15-mer peptide (X = citrulline), purified HLA-DRB1*01:01, read-out: DRB1*01:01 binding capacity, Cit peptide (IC50 nM)
[3] = wild-type (unmodified Arg) 15-mer peptide, purified HLA-DRB1*04:01, read-out: DRB1*04:01 binding capacity, WT peptide (IC50 nM)
[4] = wild-type (unmodified Arg) 15-mer peptide, purified HLA-DRB1*01:01, read-out: DRB1*01:01 binding capacity, WT peptide (IC50 nM)
[5] = read-out: DRB1*04:01 binding capacity, WT peptide (IC50 nM)
[6] = read-out: DRB1*01:01 binding capacity, WT peptide (IC50 nM)
[7] = citrullinated 15-mer (X), purified MHC, inhibition of radiolabeled peptide binding, dash = IC50 >40,000 nM, read-out: DRB1*04:01 binding capacity, Cit peptide (IC50 nM)
[8] = citrullinated 15-mer (X), purified MHC, inhibition of radiolabeled peptide binding, dash = IC50 >40,000 nM, read-out: DRB1*01:01 binding capacity, Cit peptide (IC50 nM)

Compound: DALKGTNESLERQMR [Vimentin 331 WT]
- IC50 (HLA-DRB1*04:01; [3]): 18000 nM
- IC50 (HLA-DRB1*01:01; [4]): 39900 nM

Compound: CC[C@H](C)[C@H](NC(=O)CNC(=O)[C@H](CCCNC(=N)N)NC(=O)[C@H](CCC(N)=O)NC(=O)CNC(=O)[C@H](C)NC(=O)[C@@H](N)CC(C)C)C(=O)N[C@H](C(=O)NCC(=O)N[C@@H](CC(C)C)C(=O)N1CCC[C@H]1C(=O)NCC(=O)N[C@@H](CCC(N)=O)C(=O)N[C@@H](CCCNC(N)=O)C(=O)NCC(=O)O)C(C)C [LAGQRGIVGLPGQXG] (H-LAGQRGIVGLPGQ[Cit]G-OH)
- IC50 (HLA-DRB1*04:01; [1]): 5040 nM
- IC50 (HLA-DRB1*01:01; [2]): 1.3 nM

Compound: CC(C)C[C@H](NC(=O)[C@@H](NC(=O)[C@H](CC(N)=O)NC(=O)[C@H](CCC(=O)O)NC(=O)[C@H](C)NC(=O)[C@H](CCC(=O)O)NC(=O)[C@H](CCC(=O)O)NC(=O)[C@@H](N)CCCNC(=N)N)[C@@H](C)O)C(=O)N[C@@H](CCC(N)=O)C(=O)N[C@@H](CO)C(=O)N[C@@H](Cc1ccccc1)C(=O)N[C@@H](CCCNC(N)=O)C(=O)N[C@@H](CCC(N)=O)C(=O)N[C@@H](CC(=O)O)C(=O)N[C@H](C(=O)O)C(C)C [REEAENTLQSFXQDV] (H-REEAENTLQSF[Cit]QDV-OH)
- IC50 (HLA-DRB1*04:01; [7]): 11600 nM
- IC50 (HLA-DRB1*01:01; [8]): 33300 nM

Compound: CC[C@H](C)[C@H](NC(=O)[C@@H](N)CC(=O)O)C(=O)N[C@@H](CCSC)C(=O)N[C@@H](CCCNC(N)=O)C(=O)N[C@@H](CC(C)C)C(=O)N[C@@H](CCCNC(=N)N)C(=O)N[C@@H](CCC(=O)O)C(=O)N[C@@H](CCCCN)C(=O)N[C@@H](CC(C)C)C(=O)N[C@@H](CCC(N)=O)C(=O)N[C@@H](CCC(=O)O)C(=O)N[C@@H](CCC(=O)O)C(=O)N[C@@H](CCSC)C(=O)N[C@@H](CC(C)C)C(=O)N[C@@H](CCC(N)=O)C(=O)O [DIMXLREKLQEEMLQ] (H-DIM[Cit]LREKLQEEMLQ-OH)
- IC50 (HLA-DRB1*04:01; [7]): > 40000 nM
- IC50 (HLA-DRB1*01:01; [8]): 983 nM

Compound: NTLQSFRQDVDNASL [Vimentin 201 WT]
- IC50 (HLA-DRB1*04:01; [5]): 408 nM
- IC50 (HLA-DRB1*01:01; [6]): 1840 nM

Compound: TNLDSLPLVDTHSKR [Vimentin 426 WT]
- IC50 (HLA-DRB1*04:01; [3]): > 40000 nM
- IC50 (HLA-DRB1*01:01; [4]): 904 nM

Compound: CC[C@H](C)[C@H](NC(=O)[C@H](CC(=O)O)NC(=O)[C@@H](NC(=O)[C@@H](NC(=O)[C@@H]1CCCN1C(=O)[C@H](CC(C)C)NC(=O)[C@H](CCCNC(N)=O)NC(=O)[C@H](CO)NC(=O)[C@@H](NC(=O)[C@H](CCCCN)NC(=O)[C@H](CCC(N)=O)NC(=O)[C@H](CO)NC(=O)[C@H](CCCNC(=N)N)NC(=O)[C@H](Cc1ccc(O)cc1)NC(=O)[C@@H](N)CCC(=O)O)[C@@H](C)O)[C@@H](C)CC)[C@@H](C)CC)C(=O)O [EYRSQKTSXLPIIDI] (H-EYRSQKTS[Cit]LPIIDI-OH)
- IC50 (HLA-DRB1*04:01; citrullinated peptide as listed (X at Cit position), read-out: DRB1*04:01 binding capacity Cit peptide (IC50 nM)): 316 nM
- IC50 (HLA-DRB1*04:01; value of the wild-type (non-citrullinated) counterpart of the listed peptide, read-out: DRB1*04:01 binding capacity WT peptide (IC50 nM)): 314 nM
- IC50 (HLA-DRB1*01:01; citrullinated peptide as listed (X at Cit position), read-out: DRB1*01:01 binding capacity Cit peptide (IC50 nM)): 6.9 nM
- IC50 (HLA-DRB1*01:01; value of the wild-type (non-citrullinated) counterpart of the listed peptide, read-out: DRB1*01:01 binding capacity WT peptide (IC50 nM)): 14 nM

Compound: C[C@H](NC(=O)CNC(=O)[C@H](C)NC(=O)[C@@H]1CCCN1C(=O)CNC(=O)[C@@H](NC(=O)[C@H](CCCNC(=N)N)NC(=O)CNC(=O)[C@H](CCCNC(=N)N)NC(=O)[C@@H](N)CCC(=O)O)[C@@H](C)O)C(=O)N[C@@H](C)C(=O)NCC(=O)N[C@@H](C)C(=O)N[C@@H](CCCNC(N)=O)C(=O)NCC(=O)O [ERGRTGPAGAAGAXG] (H-ERGRTGPAGAAGA[Cit]G-OH)
- IC50 (HLA-DRB1*04:01; [1]): > 40000 nM
- IC50 (HLA-DRB1*01:01; [2]): 1120 nM

Compound: KAGEKGLPGAPGLRG [Collagen 616 WT]
- IC50 (HLA-DRB1*04:01; [3]): > 40000 nM
- IC50 (HLA-DRB1*01:01; [4]): 363 nM

Compound: CC(C)C[C@H](NC(=O)[C@H](C)NC(=O)[C@H](CO)NC(=O)CNC(=O)[C@H](CC(C)C)NC(=O)[C@H](CO)NC(=O)[C@H](Cc1ccc(O)cc1)NC(=O)[C@@H](NC(=O)[C@H](CCCNC(N)=O)NC(=O)[C@@H](NC(=O)[C@H](CO)NC(=O)[C@@H](NC(=O)[C@@H](NC(=O)[C@@H](N)C(C)C)[C@@H](C)O)[C@@H](C)O)[C@@H](C)O)[C@@H](C)O)C(=O)N[C@@H](CCCNC(=N)N)C(=O)O [VTTSTXTYSLGSALR] (H-VTTST[Cit]TYSLGSALR-OH)
- IC50 (HLA-DRB1*04:01; [7]): 1480 nM
- IC50 (HLA-DRB1*01:01; [8]): 7.2 nM

Compound: CC(C)C[C@H](NC(=O)[C@H](CCC(N)=O)NC(=O)[C@H](CC(=O)O)NC(=O)[C@@H](N)C(C)C)C(=O)N[C@H](C(=O)N[C@@H](CC(N)=O)C(=O)N[C@@H](CC(=O)O)C(=O)N[C@@H](CCCCN)C(=O)N[C@@H](C)C(=O)N[C@@H](CCCNC(=N)N)C(=O)N[C@H](C(=O)N[C@@H](CCC(=O)O)C(=O)N[C@H](C(=O)N[C@@H](CCC(=O)O)C(=O)N[C@@H](CCCNC(N)=O)C(=O)O)C(C)C)C(C)C)[C@@H](C)O [VDQLTNDKARVEVEX] (H-VDQLTNDKARVEVE[Cit]-OH)
- IC50 (HLA-DRB1*04:01; [7]): > 40000 nM
- IC50 (HLA-DRB1*01:01; [8]): 7420 nM

Further lines, results first:

- IC50 (HLA-DRB1*04:01; [1]): 1950 nM
- IC50 (HLA-DRB1*01:01; [2]): 448 nM
Compound: CC(C)C[C@H](NC(=O)[C@H](CO)NC(=O)[C@H](CO)NC(=O)[C@H](Cc1ccccc1)NC(=O)[C@H](CC(N)=O)NC(=O)[C@@H]1CCCN1)C(=O)N[C@@H](CC(N)=O)C(=O)N[C@@H](CC(C)C)C(=O)N[C@@H](CCCNC(N)=O)C(=O)N[C@@H](CCC(=O)O)C(=O)N[C@H](C(=O)N[C@@H](CC(N)=O)C(=O)N[C@@H](CC(C)C)C(=O)N[C@@H](CC(=O)O)C(=O)N[C@@H](CO)C(=O)O)[C@@H](C)O [PNFSSLNLXETNLDS] (H-PNFSSLNL[Cit]ETNLDS-OH)

- IC50 (HLA-DRB1*04:01; [5]): 12000 nM
- IC50 (HLA-DRB1*01:01; [6]): 68 nM
Compound: FSLADAINTEFKNTR [Vimentin 86 WT]

- IC50 (HLA-DRB1*04:01; [7]): 15800 nM
- IC50 (HLA-DRB1*01:01; [8]): 512 nM
Compound: CSCC[C@H](NC(=O)[C@H](CCCNC(N)=O)NC(=O)[C@H](CCCNC(=N)N)NC(=O)[C@@H](N)Cc1ccc(O)cc1)C(=O)N[C@@H](Cc1ccccc1)C(=O)NCC(=O)NCC(=O)N1CCC[C@H]1C(=O)NCC(=O)N[C@H](C(=O)N[C@@H](C)C(=O)N[C@@H](CO)C(=O)N[C@@H](CCCNC(=N)N)C(=O)N1CCC[C@H]1C(=O)N[C@@H](CO)C(=O)O)[C@@H](C)O [YRXMFGGPGTASRPS] (H-YR[Cit]MFGGPGTASRPS-OH)

- IC50 (HLA-DRB1*04:01; [5]): 953 nM
- IC50 (HLA-DRB1*01:01; [6]): 394 nM
Compound: YKSKFADLSEAANRN [Vimentin 291 WT]

- IC50 (HLA-DRB1*04:01; [7]): 13400 nM
- IC50 (HLA-DRB1*01:01; [8]): 614 nM
Compound: CC(C)C[C@H](NC(=O)[C@H](CCC(N)=O)NC(=O)[C@H](CC(=O)O)NC(=O)[C@@H](NC(=O)[C@H](CCC(N)=O)NC(=O)[C@H](CCCNC(=N)N)NC(=O)[C@H](CCCNC(N)=O)NC(=O)[C@H](CC(C)C)NC(=O)[C@@H](N)CCC(=O)O)C(C)C)C(=O)N[C@H](C(=O)N[C@@H](CC(N)=O)C(=O)N[C@@H](CC(=O)O)C(=O)N[C@@H](CCCCN)C(=O)N[C@@H](C)C(=O)N[C@@H](CCCNC(=N)N)C(=O)O)[C@@H](C)O [ELXRQVDQLTNDKAR] (H-EL[Cit]RQVDQLTNDKAR-OH)

- IC50 (HLA-DRB1*04:01; [3]): 7570 nM
- IC50 (HLA-DRB1*01:01; [4]): 527 nM
Compound: GEESRISLPLPNFSS [Vimentin 406 WT]

- IC50 (HLA-DRB1*04:01; [3]): 9280 nM
- IC50 (HLA-DRB1*01:01; [4]): 20 nM
Compound: LAGQRGIVGLPGQRG [Collagen 976 WT]

- IC50 (HLA-DRB1*04:01; [7]): 8760 nM
- IC50 (HLA-DRB1*01:01; [8]): 956 nM
Compound: CC(C)C[C@H](NC(=O)[C@H](C)NC(=O)[C@H](C)NC(=O)[C@@H](N)[C@@H](C)O)C(=O)N[C@@H](CCCNC(N)=O)C(=O)N[C@@H](CC(=O)O)C(=O)N[C@H](C(=O)N[C@@H](CCCNC(=N)N)C(=O)N[C@@H](CCC(N)=O)C(=O)N[C@@H](CCC(N)=O)C(=O)N[C@@H](Cc1ccc(O)cc1)C(=O)N[C@@H](CCC(=O)O)C(=O)N[C@@H](CO)C(=O)N[C@H](C(=O)N[C@@H](C)C(=O)O)C(C)C)C(C)C [TAALXDVRQQYESVA] (H-TAAL[Cit]DVRQQYESVA-OH)
